{"source": "patent US20110118337A1", "about": "“Method of Using Compositions Comprising MIR-192 and/or MIR-215 for the Treatment of Cancer” (Merck Sharp & Dohme Corp., priority 2008, published 2011)", "tested_on": "HCT116DICER^ex5 cells", "experiment": "Cell cycle FACS screen of pools of three siRNAs per gene (G1 after nocodazole, G2/M after aphidicolin)", "format": "cell-based, human", "details": "pools of 3 siRNAs/gene at 100 nM final, FACS 66 hours post-transfection, average of two experiments", "description": "To identify targets whose modulation influences the cell cycle arrest phenotype observed with miR-192 expression, the 62 candidate genes identified as described in Example 2 and shown in TABLE 3 were silenced individually by transfecting a pool of 3 gene-specific siRNA duplexes per gene (each directed to a different region of the gene) into HCT116DICER^ex5 cells. The siRNA duplex sequences (3 duplexes per gene) used to target each of the 62 genes are shown below in TABLE 5. The siRNA duplex oligonucleotides were obtained from Sigma-Genesys, as described in Linsley, P. S. et al., Mol Cell Biol 27:2240-2252 (2007).\nHCT116DICER^ex5 cells were transiently transfected with pools of three different siRNA duplexes per gene at a 100 nM final concentration using Lipofectamine RNAiMax (Invitrogen), according to the manufacturer's instructions. At 48 hours post transfection, cells were left untreated, treated with nocodazole (100 ng/mL, Sigma-Aldrich), or treated with aphidicolin (2 μg/mL, Sigma-Aldrich) for an additional 18 hours before harvesting. The cells transfected with the siRNA pools were then screened by FACS analysis as described in Example 3 for the percentage of cells arrested in G1 or G2/M as compared to the negative siRNA luciferase control.\nThe siRNA pools tested in this screen were ranked according to the percentage of cells arrested in G1 or G2/M following transfection, as compared with a negative control siRNA targeting luciferase. To avoid being misled by possible RNAi off-target effects, the siRNA pools were deconvoluted to identify genes for which at least 2 different siRNA duplexes from the pool caused the cell cycle arrest phenotype (data not shown).\nTABLE 6 summarizes the data obtained 66 hours post-transfection by FACS analysis showing the cell cycle distribution of the HCT116DICER^ex5 cells transfected with siRNA pools of 3 siRNAs/gene. Each pool was analyzed in two separate experiments, and the average percentage of the cells trapped in G1 (following nocodazole treatment), or G2/M (following aphidicolin treatment) are shown in TABLE 6."}
{"substance": "miR-192: Synthetic duplex mimetic of miR-192, guide CUGACCUAUGAAUUGACAGCC (SEQ ID NO:1), passenger SEQ ID NO:7 (sense CUGUCAAUUCAUCGGUCUGAU; listed as RNA, chemistry not given here; listed as Homo sapiens)", "values": [{"measurement": "% G2 (Avg), Aphidicholin+", "setting": "aphidicolin 2 μg/mL 18 h", "value": 54.9, "unit": "%"}, {"measurement": "% G1 (Avg), Nocodazole+", "setting": "nocodazole 100 ng/mL 18 h", "value": 43.6, "unit": "%"}]}
